Consider 4 compounds from article PMC6889545, “ALW peptide ameliorates lupus nephritis in MRL/lpr mice” (Arthritis Research & Therapy, 2019).

A short description of data set [1]: Solubility of the peptides. Type of data set: physicochemical. As to conditions: for Maximum solubility: injection solution in saline. The method, then:
For the in vivo study, 40 MRL/lpr mice were randomly divided into four groups. Mice in the ALW group (n = 12) received an intravenous injection of 100 μg/mL ALW peptide in saline every other day, mice in the PLP group (n = 12) were injected intravenously with 100 μg/mL PLP peptide in saline, mice in the NaCl group (n = 8) were given normal saline intravenously, and mice in the blank group (n = 8) were not treated. The dosages were decided in a preliminary experiment, showing that the concentration of anti-dsDNA IgG was about 34.74 ± 3.47 ng/mL in MRL/lpr mice aged 24 weeks. By calculating the molecular weights of anti-dsDNA IgG (150 kDa) to ALW peptide (1.4 kDa), the ALW concentration of 100 μg/mL is sufficient to maintain a high molar ratio (much higher than 5 times of anti-dsDNA IgG). In fact, the maximum solubility of PLP peptide is also 100 μg/mL, less than ALW peptide. Urine was collected every 2 weeks. Six weeks later, the mice were euthanized. Blood, urine, and kidneys were harvested for further analysis.

For data set [2], the system named is anti-dsDNA IgGs. As to conditions: cited from earlier work. An excerpt: The ALW peptide is a small molecule with a molecular weight of 1.4 kDa. […] Because there is no methionine, cysteine, and glutamine, which are related with the oxidation, cyclization, and degradation of peptides, ALW may have greater physiological stability. In addition, the ALW peptide has a relatively neutral net charge (pI = 7.38), which probably decrease unnecessary, nonspecific protein-protein interactions. […] Here, after chemical modification ...

Data set [3] is described as follows: Tissue biodistribution of ALW peptide (kidney, liver, lung). It counts as in vivo, CD1 mice. The protocol:
(§1) Two 12-amino acid peptides (ALWPPNLHAWVP [ALW]; PLPHNPWVLAAW [PLP]) were synthetized by Sangon Biotech Company (China). The PLP peptide was a scrambled peptide with amino acid residues identical to ALW peptide. The first and last amino acids of both peptides are D-form, and the others are L-form. To study the pharmacokinetic characteristics of both peptides in vivo, 8-week-old male CD1 mice were administrated with ALW or PLP peptide at a single dose of 12.5 mg/kg. Plasma samples were collected at each time point before (0) and 0.083, 0.25, 0.5, 1, 2, 4, 8, and 24 h after administration. To assess the biodistribution of ALW peptide in vivo, tissues including the kidney, liver, and lung were collected at 0.083, 0.25, 0.5, 1, 2, and 4 h after administration. Then, the concentration of two peptides in mouse plasma and tissues were quantitatively determined by liquid chromatography-tandem mass spectrometry (LC-MS/MS). The pharmacokinetic parameters were calculated by WinNonlin 6.1 software according to the […] model.

For data set [4], the system named is BALB/c mice. Description: Induction of anti-dsDNA antibodies after intravenous peptide injection. As to conditions: same dosages, frequencies and treatment period as MRL/lpr study, data not shown. It counts as in vivo, mouse. An excerpt:
The ALW and PLP peptides were also intravenously injected into BALB/c mice with the same dosages, frequencies, and treatment period. […] All animal protocols were approved by the Hospital Research Ethics Committee.

Data set [5] is described as follows: Plasma pharmacokinetics of the peptides after a single dose. It counts as in vivo. Conditions: 8-week-old male CD1 mice, single intravenous dose 12.5 mg/kg, plasma 0-24 h, LC-MS/MS, WinNonlin 6.1; for MRT: male, CD1, mouse, plasma, iv, 12.5 mg/kg; for clearance: read-out: Cl (plasma clearance); for Vd: read-out: Vss. The method, then:
as §1

Data set [6] deals with murine model. As to conditions: cited from earlier work. The source says:
IgG2a and IgG3 had higher affinity for autoantigens in the kidney, followed by IgG1, IgG2b, and IgM [12]. DWEYS peptide (DWEYSVWLSN) is a DNA-mimic peptide screened by a mouse pathogenic monoclonal antibody (IgG2b, R4A clone). […] FISLE-412, a peptide compound mimicking the molecular structure of DWEYS ... || Given the key role of anti-dsDNA antibodies in the pathogenesis of LN, development of specific inhibitors of anti-dsDNA antibodies may be a good method to manage LN. Several polypeptides, specifically reacting with mouse anti-dsDNA IgG2b, were identified by the peptide display phage library. […] FISLE-412, a small peptidomimetic modified from DWEYS peptide, blocked the binding of DNA to monoclonal mouse and human anti-dsDNA antibodies with improved affinity and selectivity. In ...

The test system of data set [7] is NZB×NZW F1 lupus mice. As to conditions: intravenous once a month; cited from earlier work. The source says: Given the key role of anti-dsDNA antibodies in the pathogenesis of LN, development of specific inhibitors of anti-dsDNA antibodies may be a good method to manage LN. Several polypeptides, specifically reacting with mouse anti-dsDNA IgG2b, were identified by the peptide display phage library. […] FISLE-412, a small peptidomimetic modified from DWEYS peptide, blocked the binding of DNA to monoclonal mouse and human anti-dsDNA antibodies with improved affinity and selectivity. In ...

[8] abbreviates: 8-week-old male CD1 mice, single intravenous dose 12.5 mg/kg, kidney tissue 0.083-4 h, LC-MS/MS, WinNonlin 6.1.
[9] abbreviates: 8-week-old male CD1 mice, single intravenous dose 12.5 mg/kg, liver tissue 0.083-4 h, LC-MS/MS, WinNonlin 6.1.
Where [10] appears, read: 8-week-old male CD1 mice, single intravenous dose 12.5 mg/kg, lung tissue 0.083-4 h, LC-MS/MS, WinNonlin 6.1.
The mark [11] stands for this setting: read-out: MRT0-inf (mean residence time) in plasma.

Where two headings read alike, the source gives them in different places. Non-standard residues stand in square brackets, D forms with d. Residues, ends and D or L forms follow the SMILES beside them.

Broadly, the clearance is the volume of plasma or blood freed of the substance per unit of time. In the case of `CC(C)C[C@H](NC(=O)[C@H](CC(N)=O)NC(=O)[C@@H]1CCCN1C(=O)[C@@H]1CCCN1C(=O)[C@H](Cc1c[nH]c2ccccc12)NC(=O)[C@H](CC(C)C)NC(=O)[C@@H](C)N)C(=O)N[C@@H](Cc1c[nH]cn1)C(=O)N[C@@H](C)C(=O)N[C@@H](Cc1c[nH]c2ccccc12)C(=O)N[C@H](C(=O)N1CCC[C@@H]1C(=O)O)C(C)C` [ALW peptide] (H-[dA]LWPPNLHAWV[dP]-OH), the Maximum solubility in data set [1] is more than 0.1 mg/mL. Besides, the “Solubility in water or PBS” value in data set [1] (water or PBS) was “easy to dissolve in water or PBS”. For the same compound, in data set [2] (after substituting two terminal residues A and P with D-form ones), the “Resistance of the peptide to catalysis” value is “enhanced”. For the same compound, the “Catalysis of the peptide by anti-dsDNA IgGs” value in data set [2] (unmodified peptide) is on record as “catalyzed weakly”. Further, in data set [3] (setting [8]), the AUC0-inf in kidney is 28.80 ng·h/g, the AUC0-last in kidney is 25.51 ng·h/g, the Cmax in kidney is listed as 60.00 ng/g and the MRT0-inf in kidney came out at 27.6 min. In addition, in data set [3] (setting [8]), the MRT0-last in kidney worked out at 19.8 min, the T1/2 in kidney worked out at 18.6 min and the Tmax in kidney is 4.8 min. For the same compound, the “Kp, kidney” value in data set [3] (8-week-old male CD1 mice, single intravenous dose 12.5 mg/kg, kidney versus plasma) was found to be 0.11. Further, in data set [3] (setting [9]), the AUC0-last in liver was 2.29 ng·h/g, the Cmax in liver was found to be 11.80 ng/g, the MRT0-last in liver turned out to be 8.4 min and the Tmax in liver was 4.8 min. Besides, the “Kp, liver” value in data set [3] (8-week-old male CD1 mice, single intravenous dose 12.5 mg/kg, liver versus plasma) was 0.01. In addition, in data set [3] (setting [10]), the AUC0-last in lung was 5.10 ng·h/g, the Cmax in lung is listed as 7.33 ng/g, the MRT0-last in lung is 29.4 min and the Tmax in lung is 15 min. Besides, the “Kp, lung” value in data set [3] (8-week-old male CD1 mice, single intravenous dose 12.5 mg/kg, lung versus plasma) was 0.02. Moreover, in data set [3] (CD1 mice, intravenous 12.5 mg/kg, kidney), the “Renal tissue exposure as share of plasma exposure” value was “approximately 11.2%”. In data set [3] (CD1 mice, intravenous 12.5 mg/kg, liver), the “Liver tissue exposure as share of plasma exposure” value is 0.892%. Further, in data set [3] (CD1 mice, intravenous 12.5 mg/kg, lung), the “Lung tissue exposure as share of plasma exposure” value is given as 1.99%. The “Anti-dsDNA antibodies in sera after treatment (immunogenicity)” value (“Anti-dsDNA antibodies in sera” for short) in data set [4] is on record as “induced no anti-dsDNA antibodies”. Also, in data set [4] (listed as ALW), the “Anti-dsDNA antibodies in sera” value is reported as “no detectable anti-dsDNA antibodies”. Also, in data set [5], the AUC0-inf in plasma was 0.264 µg·h/mL, the AUC0-last in plasma came out at 0.258 µg·h/mL, the “MRT0-inf (mean residence time) in plasma” value was found to be 7.8 min and the “T1/2 (elimination half-life) in plasma” value was determined as 18.9 min. In addition, in data set [5] (setting [11]), the MRT amounted to 7.8 min. The MRT in data set [5] (read-out: MRT0-last in plasma) was found to be 6 min. Moreover, in data set [5] (mouse), the C0 was 3.64 µg/mL, the clearance was determined as 47.3 L/h/kg and the Vd was 6.16 L/kg. In addition, the half-life in data set [5] (mouse, read-out: T1/2 (elimination half-life) in plasma (converted)) is 19.2 min.

In the case of `CC(C)C[C@H](NC(=O)[C@@H](NC(=O)[C@H](Cc1c[nH]c2ccccc12)NC(=O)[C@@H]1CCCN1C(=O)[C@H](CC(N)=O)NC(=O)[C@H](Cc1c[nH]cn1)NC(=O)[C@@H]1CCCN1C(=O)[C@H](CC(C)C)NC(=O)[C@H]1CCCN1)C(C)C)C(=O)N[C@@H](C)C(=O)N[C@@H](C)C(=O)N[C@H](Cc1c[nH]c2ccccc12)C(=O)O` [PLP peptide, reference compound] (H-[dP]LPHNPWVLAA[dW]-OH), in data set [1], the Maximum solubility stood at 0.1 mg/mL. Also, the “Anti-dsDNA antibodies in sera” value in data set [4] is recorded as “no detectable anti-dsDNA antibodies”. In addition, the “MRT0-inf (mean residence time) in plasma” value in data set [5] is 13.6 min. In data set [5] (setting [11]), the MRT was determined as 13.8 min. Also, the MRT in data set [5] (read-out: MRT0-last in plasma) is 11.4 min. Moreover, in data set [5] (mouse), the C0 was 85.4 µg/mL, the clearance is 0.882 L/h/kg and the Vd turned out to be 0.2 L/kg. Moreover, in data set [5] (mouse, read-out: AUC0-inf in plasma), the AUC(0-inf) came out at 14.1 µg·h/mL. Besides, the AUC(0-t) in data set [5] (mouse, read-out: AUC0-last in plasma) stood at 14.1 µg·h/mL.

In the case of “DWEYSVWLSN [DWEYS peptide, DNA-mimic peptide … screened by a mouse pathogenic monoclonal antibody (IgG2b, R4A clone)]”, in data set [6] (SCID mice), the “Renal deposition of IgG2b” value is given as “protected SCID mice from the renal deposition of IgG2b”. For the same compound, the “Renal IgG deposition” value in data set [6] (murine model, intraperitoneal administration) is “evidently depressed”.

With “FIEWNKLRFRQGLEW [pCons, 15-mer peptide based on MHC class I and II T cell determinants in the VH region of murine anti-dsDNA IgG2a or IgG2b]”, the “Emergence of multiple autoantibodies” value in data set [7] is listed as “delayed the emergence of multiple autoantibodies”.
